From article PMC6745035, “Novel tetrahydroacridine derivatives with iodobenzoic moieties induce G0/G1 cell cycle arrest and apoptosis in A549 non-small lung cancer and HT-29 colorectal cancer cells” (Molecular and Cellular Biochemistry, 2019)

Key:
γ-H2AX = experiment: Western blot of γ-H2AX, A549; format: cell-based, human; conditions: A549, 24 h, IC50 and 1/2IC50
Method: (§1) Then, cells were treated with chosen compounds. After 24 h of incubation, monolayer and supernatant were harvested and washed in cold PBS. Cells were centrifuged—monolayer at 1200 rpm for 10 min, supernatant 3500 rpm for 10 min. Pellets were dissolved in RIPA Lysis and Extraction buffer (Bio-Rad) containing Phosphatase Inhibitor Cocktail 3 (Sigma Aldrich) and Protease Inhibitor Cocktail (Sigma Aldrich). Samples were incubated in ice for 30 min and mixed every 10 min. Then, samples were centrifuged at 12,000 rpm for 25 min. Protein concentration in supernatants was measured in triplicate using a Protein Assay (Bio-Rad). Proteins were separated by SDS–polyacrylamide gel electrophoresis. Separating and stacking gels were made of different ratios of water, Tris–HCl pH 6.8 and pH 8.8, 10% SDS (Sigma Aldrich), Acrylamide/bis-acrylamide (Sigma Aldrich), 10% APS (Sigma Aldrich), TEMED (Sigma Aldrich). 7.5% gels were prepared for analysis PARP-1, whereas 12% gels prepared for γ-H2AX. After separation on SDS–polyacrylamide gels, proteins were electroblotted on nitrocellulose membrane in Transfer Buffer (Glycine, Tris, Methanol). Membranes were washed in TBS/0.1% or 0.05% Tween20 solution and blocked in Tris-buffered saline with 5% of non-fated dried milk for 1 h. Membranes were then incubated overnight with primary antibodies—anti-PARP-1 (Cell Signaling Technology), anti-γ-H2A.X (Cell Signaling Technology), anti-β-actin (Cell Signaling Technology) in cold room (6 °C). After incubation, membranes well washed with TBS/Tween solution and blocked with and horseradish peroxidase-conjugated secondary antibodies (Bio-Rad) for 1 h in cold room. Protein bands were visualized using ECL™ Prime Western Blotting Detection Reagents (Sigma Aldrich) Healthcare and Carestream Kodak autoradiography GBX fixer/replenisher (Sigma Aldrich) with Developer and Replenisher (Carestream) in the dark room. Results were obtained on Autoradiography Film (Santa Cruz Biotechnology). Densitometric analysis was performed by using a software program (ImageJ). […]

A549 cells [1] = experiment: Colony forming assay, A549; format: cell-based, human
Text: The plates were placed on ice.

HT-29 cells = experiment: MTT cytotoxicity assay, HT-29; format: cell-based; conditions: Homo sapiens, HT-29; MTT, 24 h incubation; read-out: IC50 µM ± SD against HT-29
Text: (§2) The MTT assay was used to evaluate cell metabolic activity. The test principle is based on the determination of cell viability by measuring the metabolic activity in mitochondria. Enzymatically active mitochondria reduce the water-soluble MTT (3-(4,5-dimethylthiazol-2-yl)-2,5 diphenyltetrazoliumbromide) to blue–violet insoluble formazan. The number of viability cells is proportional to the colour intensity determined by photometric measurements (an analytical wavelength 570 nm) after dissolving the formazan in Dimethylsulfoxide (DMSO) (Serva) and Sorensen’s glycine buffer. MTT (Sigma Aldrich) was dissolved in Phosphate Buffered Saline (PBS) (PAN-Biotech) at a concentration of 0.5 mg/mL. Sorensen’s glycine buffer is made of 0.1 M glycine and 0.1 M NaCl, at pH 10.5. Studied compounds were dissolved in DMSO in order to receive stock solutions.
(§3) For the assay, cells were seeded into 96-well plates at density 10^4 cells per well and cultured for 24 h at 37 °C and 5% CO2. Then medium was removed, and cells were exposed to the 100 µL of the compound solutions over a range of concentrations (final DMSO concentration was below 0.2%) or nothing but culture medium (blank control). Pure DMSO was used as a positive control. After 24 h of incubation with the compound solutions, medium was removed and 50 µL of the MTT solution was added to each well and incubated in the dark for additional 2 h at 37 °C. Then the MTT solution was carefully removed and 100 µL of DMSO was added. Plates were incubated for 10 min at room temperature. Finally, 5 µL of Sorensen Buffer was added to each well. Plate was swayed, and the absorbance was measured by using microplate reader (Synergy H1, BioTek, Winooski, VT, USA) at a wavelength of 570 nm. The cell viability was expressed as a percentage of the control values (blank). The experiments were done in triplicate.

A549 cells [2] = experiment: Reactive oxygen species assay (DCFH-DA), A549; format: cell-based, human; conditions: compound at IC50 24 h plus H2O2, H2O2 only 1.86-fold
Method: After incubation, compounds were added into the wells and further incubated for next 24 h. H2O2 (1 mM) was added at 22nd h of incubation with compounds. H2O2 was used as a positive control. 30 min before the analysis, DCFH-DA (20 µM) was added to the wells. After incubation, cells were harvested and washed in PBS. Then, cells were centrifuged at 1500 rpm for 10 min. Medium was removed and cells were suspended in PBS. Analysis was performed on BD Accuri C6 Flow Cytometry (Becton–Dickinson).

SH-SY5Y cells = experiment: Cytoprotection against rotenone/oligomycin A, pre-incubation, MTT; format: cell-based, human; conditions: for Cytoprotective properties in the pre-incubation assay (in words): rotenone/oligomycin A, range of concentration 1–0.001 µM; for Cytoprotection: pre-incubation with rotenone/oligomycin A;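 on Cytoprotection: Toxic mixture Rotenone 30 µM plus Oligomycin A 10 µM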
Method: Rotenone with oligomycin A (R/O) were taken to induce mitochondrial ROS by blocking of complexes I and V of the mitochondrial electron transport chain. It causes free radical production and blockade of ATP synthesis. In the pre-incubation experiment, it could be assessed whether the compounds have cytoprotective properties due to the activation of endogenous antioxidant pathways. In the co-incubation could be shown whether compounds are free-radical scavengers. MTT assay was a test of choice, because in this assay mitochondrial activity is measured. […] It can be determined whether novel compound would protect cells from both apoptotic and necrotic death resulting from the increase of intracellular ROS. In both experiments, trolox was used as a reference compound. […] After this time, toxic mixture was added, and cells were maintained for an additional 24 h in the presence of the compounds.

EA.hy926 cells = experiment: MTT cytotoxicity assay, EA.hy926; format: cell-based, human; conditions: Homo sapiens, EA.hy 926; MTT, 24 h incubation; read-out: IC50 µM ± SD against EA.hy926
Text: The EA.hy926 cells (the human umbilical vein, somatic cell hybrid) (American Type Culture Collection) are immortalized human umbilical vein endothelial cells. They have morphological, phenotypic and functional characteristics of human endothelial cells, without the limited lifespan. This cell line has been considered as a good model for anticancer drug screening and was chosen to evaluate the endothelial cytotoxicity of novel compounds.
as §2, §3

PARP-1 = experiment: Western blot of PARP-1 cleavage, HT-29; format: cell-based, human; conditions: HT-29, 24 h, IC50 and 1/2IC50
Method: as §1

In the case of `O=C(NCCCNc1c2c(nc3ccccc13)CCCC2)c1ccccc1I` [Compound 1b], the “γ-H2AX protein level / DNA damage (in words)” value (γ-H2AX) is reported as “slightly lower”, the “Number of colonies expressed as percent of control number” value (from here on “Number … as percent of control number”) (A549 cells [1]; compound at 2xIC50) is reported as 3.55% and the IC50 (HT-29 cells) is reported as 16.1 ± 1.55 µM. The “Increase in ROS level (DCF fluorescence) in comparison with non-treated control” value (“Increase in ROS level … with non-treated control” for short) (A549 cells [2]) was 1.98 fold, the “Cytoprotective properties in the pre-incubation assay (in words)” value (shortened to “Cytoprotective properties”) (SH-SY5Y cells) was “did not show cytoprotective properties” and the IC50 (EA.hy926 cells) was 22.4 ± 2.3 µM.

With `O=C(NCCCCNc1c2c(nc3ccccc13)CCCC2)c1ccccc1I` [Compound 1c] the “Cleaved PARP-1 (89 kDa) level (in words)” value (PARP-1) was “lower apoptosis at IC50 concentrations”, the IC50 (HT-29 cells) was 13.6 ± 1.39 µM and the Cytoprotection (SH-SY5Y cells; 0.001 µM) was 32.91%. The Cytoprotection (SH-SY5Y cells; 0.01 µM) was 37.05%, the Cytoprotection (SH-SY5Y cells; 0.1 µM) was 33.15% and the Cytoprotection (SH-SY5Y cells; 1 µM) was 33.92%. For the same molecule, the “Cytoprotective properties” value (SH-SY5Y cells) was “showed their action against oxidative stress in the whole range of concentrations” and the IC50 (EA.hy926 cells) was 14.3 ± 1.65 µM.

In the case of `O=C(NCCCNc1c2c(nc3ccccc13)CCCC2)c1cccc(I)c1` [Compound 1e], the “γ-H2AX protein level / DNA damage (in words)” value (γ-H2AX) is reported as “strongest effect”, the IC50 (HT-29 cells) is reported as 11 ± 0.59 µM and the “Increase in ROS level … with non-treated control” value (A549 cells [2]) is reported as 1.98 fold. The Cytoprotection (SH-SY5Y cells; 0.001 µM) was 36.22%, the Cytoprotection (SH-SY5Y cells; 0.01 µM) was 51.19% and the Cytoprotection (SH-SY5Y cells; 0.1 µM) was 46.39%. The Cytoprotection (SH-SY5Y cells; 1 µM) was 24.79%, the “Cytoprotective properties” value (SH-SY5Y cells) was “showed their action against oxidative stress in the whole range of concentrations” and the IC50 (EA.hy926 cells) was 11.7 ± 0.62 µM.

With `O=C(NCCCCNc1c2c(nc3ccccc13)CCCC2)c1ccc(I)cc1` [Compound 1i] the “Cleaved PARP-1 (89 kDa) level (in words)” value (PARP-1) was “highest PARP-1 cleavage”, the “γ-H2AX protein level / DNA damage (in words)” value (γ-H2AX) was “higher ability to damage DNA at 1/2IC50 concentration (7.44 µM) than at IC50 concentration (14.87 µM)” and the “Number … as percent of control number” value (A549 cells [1]; compound at 1/2IC50) was 39.47%. The “Number … as percent of control number” value (A549 cells [1]; compound at 2xIC50) was 0%, the “Number … as percent of control number” value (A549 cells [1]; compound at IC50) was 4.70% and the IC50 (HT-29 cells) was 5.9 ± 0.42 µM. For the same molecule, the “Increase in ROS level … with non-treated control” value (A549 cells [2]) was 1.98 fold, the “Cytoprotective properties” value (SH-SY5Y cells) was “did not show cytoprotective properties” and the IC50 (EA.hy926 cells) was 11.3 ± 0.89 µM.
